Measurements: publication PMC10974505, “Evaluation of the Antifungal and Antiproliferative Properties of the Lichen Roccella tinctoria DC. Extracts and Main Components” (Pharmaceutics, 2024)
In brackets after ≈: the same amount, converted by molar mass.

What was measured:
A549 lung cancer cells = assay: MTT cytotoxicity assay, A549 lung cancer cells; type: cell-based, human; details: for cytotoxicity at the highest concentration tested: A549 cells, 500 µg/mL
Excerpt: (§1) A549 cells were kindly provided by Prof. Lucia Nencioni (Dept. of Public Health and Infectious Diseases, Sapienza University of Rome, Rome, Italy), while Mz-ChA-1 and H69 cells were donated by Prof. Romina […]. of Anatomical, Histological, Forensic and Orthopedic Sciences, Sapienza University of Rome, Rome, Italy) and Prof. […] (Indiana University School of Medicine, Indianapolis, IN, USA). BEAS-2B cells were provided by Sigma-Aldrich (St. Louis, MO, USA). […] The growth media were replaced twice per week; subcultures were prepared when the cells achieved approximately 80% confluency. […] In brief, 2 × 10^4 cells/well were cultured into 96-well microplates for 24 h. Then, they were subjected to a treatment with progressive concentrations of the tested extracts for further 24 h. […] The effect of the treatments on the cell viability was expressed as percentage of the vehicle control. […] In addition, tolerability studies in human epithelial BEAS-2B bronchial cells and H69 cholangiocytes were performed in order to establish the possible selective cytotoxicity of the tested samples to cancer cells.

BEAS-2B bronchial cells = assay: MTT tolerability assay, noncancerous BEAS-2B bronchial cells; type: cell-based, human; details: for IC50: Homo sapiens, BEAS-2B, read-out: IC50 [µg/mL] (CL) BEAS-2B; for inhibition of BEAS-2B cell viability: 50 µg/mL
Excerpt: as §1

[1] = system: Mz-ChA-1 cholangiocarcinoma cells; assay: MTT cytotoxicity assay, Mz-ChA-1 cholangiocarcinoma cells; type: cell-based, human; details: for cytotoxicity at the highest concentration tested: Mz-ChA-1 cells, 500 µg/mL
Excerpt: as §1

H69 cholangiocytes = assay: MTT tolerability assay, noncancerous H69 cholangiocytes; type: cell-based, human; details: MTT, 24 h treatment, confidence limits in brackets, ne 1 = not evaluable, highest inhibitory effect lower than 80%, ne 2 = not evaluable, lower inhibitory effect higher than 40%; for IC50: Homo sapiens, read-out: IC50 [µg/mL] (CL) H69
Excerpt: as §1

[2] = as above; type: cell-based, human; details: human, SV40-immortalized H69 cholangiocytes (noncancerous); 50 µg/mL; read-out: lowering of H69 cell viability
Excerpt: as §1

[3] = system: C. albicans planktonic cells; assay: Antifungal susceptibility test (broth microdilution), planktonic cells; type: cell-based, Candida albicans ATCC 10231; details: for MIC50 / MIC90 / MIC: Candida albicans; for MIC50: read-out: GM MIC50; for MIC90: minimum inhibitory concentration of 90% fungal growth, read-out: GM MIC90; for MIC: minimum inhibitory concentration of 100% fungal growth, read-out: GM MIC100
Protocol: Candida albicans ATCC 10231 was obtained from the American Type Culture Collection (ATCC, Rockville, MD, USA). The antifungal effects of the isolated compounds and of the extracts against C. albicans ATCC 10231 were measured using the broth microdilution method following the standardized methods for yeast. C. albicans was cultured on Sabouraud dextrose agar (Sigma Aldrich, St. Louis, MO, USA) at 35 °C for 24 h. The final concentration of the inoculum was 2500 cells/mL. The extracts and the compounds were firstly dissolved in DMSO and then diluted at least 100-times with RPMI-1640 medium buffered with MOPS (4-morpholinepropanesulfonic acid). […] The minimal inhibitory concentration (MIC) was calculated by comparison of the growth in each well with that of the drug-free control after 24 h. Each experiment was conducted in triplicate and replicated at least three times on different dates.
The antifungal activity of extracts and isolated compounds against C. albicans planktonic cells was examined following the standardized broth microdilution method for yeasts (CLSI M27-A3).

C. albicans biofilm [4] = assay: Anti-Candida biofilm formation, 24 h (CV assay); type: cell-based, Candida albicans; details: concentration not given
Protocol: Presterilized, polystyrene, flat-bottom 48-well microtiter plates were used to investigate anti-Candida adhesion property of the extracts and the compounds [47, 48]. […] After that time, the cell suspensions were aspirated, and each well was washed twice with PBS to remove loosely adherent cells. Thus, CV assay was used to quantitatively study Candida adhesion (90 min) and early biofilm formation (24 h). The biomass was measured at 590 nm using a microplate reader.
(§2) Candida adhesion is followed by the colonization and formation of the biofilm, which is a community of cells with the ability to secrete the extracellular matrix (ECM). Biofilm-characterized infections are the most difficult to treat, and preventing biofilm formation could be of major importance. An anti-Candida biofilm formation assay was conducted after 24 h and 48 h of biofilm incubation, and the total biomass was evaluated using the CV assay.

C. albicans ATCC 10231 = assay: Galleria mellonella survival assay (larvae infected with C. albicans); type: in vivo
Protocol: The survival assay was carried out as described by Cairone and colleagues. G. mellonella larvae weighed 0.3 ± 0.03 g and were obtained from Todaro Sport (Rome, Italy). […] Three control groups were used, one with no treatment applied, one pierced and inoculated with sterile saline solution, and one treated with C. albicans suspension. The larvae were subsequently placed in an incubator set at 37 °C and observed for 120 h. […] Each trial was replicated three times, and the outcomes were documented as the survival percentage.
G. mellonella larvae as an in vivo model were chosen due to the similarities between their immunity system and the mammalian one. Furthermore, G. mellonella larvae provide a well-established in vivo model known for its ease of handling and utilization. They are extensively employed to assess the antimicrobial efficacy of both chemical and natural compounds, aligning with the ethical guidelines of the 3Rs (Replacement, Reduction, and Refinement) in animal research.

[5] = system: MCF-7 (breast cancer cell line); parameters: method as in doi:10.32508/stdjns.v2i5.779; details: MCF-7, 100 µg/mL; isolated from Roccella sinensis; cited from earlier work
[6] = system: HeLa (cervical cancer cell line); parameters: method as in doi:10.32508/stdjns.v2i5.779; details: 100 µg/mL, isolated from Roccella sinensis; cited from earlier work
[7] = system: HepG2 (liver hepatocellular carcinoma cell line); parameters: method as in doi:10.32508/stdjns.v2i5.779; details: HepG2, 100 µg/mL; isolated from Roccella sinensis; cited from earlier work
[8] = system: NCI-H460 (human lung cancer cell line); parameters: method as in doi:10.32508/stdjns.v2i5.779; details: NCI-H460, 100 µg/mL; isolated from Roccella sinensis; cited from earlier work
[9] = system: different fungal strains including C. albicans; parameters: method as in PMID 30732479; details: cited from earlier work
[10] = system: HCT-116 colon cancer cells; parameters: method as in PMID 35190352; details: cited from earlier work
C. albicans biofilm [11] = assay: Anti-Candida biofilm formation, 48 h (CV assay); type: cell-based; details: 512 μg/mL
Protocol: Candida biofilm was established on flat-bottomed, 48-well microtiter plates, following previous protocols with minor modifications. […] Plates were then incubated for 48 h at 37 °C. After biofilm formation, the medium was aspirated, and non-adherent cells were removed by washing twice with phosphate-buffered saline (PBS). C. albicans biomass was quantified using CV assay.
as §2

Alternaria solani = system: Alternaria solani; parameters: method as in doi:10.4038/jnsfsr.v40i1.4167; details: 100 µg/mL; cited from earlier work
Fusarium oxysporum = system: Fusarium oxysporum; parameters: method as in doi:10.4038/jnsfsr.v40i1.4167; details: 100 µg/mL; cited from earlier work
[12] = MTT, 24 h treatment, confidence limits in brackets, ne 1 = not evaluable, highest inhibitory effect lower than 80%, ne 2 = not evaluable, lower inhibitory effect higher than 40%
[13] = geometric mean, minimum inhibitory concentration of 50% fungal growth, 24 h

Structure (SMILES) | MIC50 [3, 13] [µg/mL] | MIC90 ([3]; geometric mean, 24 h) [µg/mL] | MIC ([3]; geometric mean, 24 h) [µg/mL] | IC50 (BEAS-2B bronchial cells; [12]) [µg/mL] | IC50 (H69 cholangiocytes) [µg/mL] | cytotoxicity at the highest concentration tested (A549 lung cancer cells) | IC50 [µg/mL] (CL) A549 (A549 lung cancer cells; [12]) | inhibition of BEAS-2B cell viability (BEAS-2B bronchial cells) | IC50 [µg/mL] (CL) Mz-ChA-1 [1, 12] | cytotoxicity at the highest concentration tested [1] | cytotoxicity at 24 h, 50 µg/mL [2] [%] | further results
COc1cccc2c1C(=O)c1c(O)c3c(c(O)c1C2=O)C[C@@](O)(C(=O)CO)C[C@@H]3O[C@H]1C[C@H](N)[C@H](O)[C@H](C)O1 [Doxorubicin, doxorubicin, reference compound] | – | – | – | 4.1 (≈ 7.54 µM) | 15.7 (≈ 28.9 µM) | – | – | – | – | – | – | IC50 (A549 lung cancer cells; Homo sapiens, A549, MTT, 24 h treatment, confidence limits in brackets, ne 1 = not evaluable, highest inhibitory effect lower than 80%, ne 2 = not evaluable, lower inhibitory effect higher than 40%, read-out: IC50 [µg/mL] (CL) A549): 17.3 µg/mL (≈ 31.8 µM); IC50 ([1]; Homo sapiens, MTT, 24 h treatment, confidence limits in brackets, ne 1 = not evaluable, highest inhibitory effect lower than 80%, ne 2 = not evaluable, lower inhibitory effect higher than 40%, read-out: IC50 [µg/mL] (CL) Mz-ChA-1): 24.5 µg/mL (≈ 45.1 µM)
Cc1cc(OC(=O)c2c(C)cc(O)cc2O)cc(O)c1C(=O)O [lecanoric acid] | – | – | – | – | – | – | – | – | – | – | – | effect on HCT-116 cells [10]: affected the cell viability and colony formation, and it induced a cell cycle block
Cc1cc(O)cc(O)c1C(=O)OCC(O)C(O)CO (centres unmarked) [Compound 3, montagnetol] | – | – | – | – | – | – | – | – | – | – | – | melting point: 158 to 160 °C

Continued, in another order:

MIC50 [3, 13] [µg/mL] | MIC90 ([3]; geometric mean, 24 h) [µg/mL] | MIC ([3]; geometric mean, 24 h) [µg/mL] | Structure (SMILES) | IC50 (BEAS-2B bronchial cells; [12]) [µg/mL] | IC50 (H69 cholangiocytes) [µg/mL] | cytotoxicity at the highest concentration tested (A549 lung cancer cells) | IC50 [µg/mL] (CL) A549 (A549 lung cancer cells; [12]) | inhibition of BEAS-2B cell viability (BEAS-2B bronchial cells) | IC50 [µg/mL] (CL) Mz-ChA-1 [1, 12] | cytotoxicity at the highest concentration tested [1] | cytotoxicity at 24 h, 50 µg/mL [2] [%] | further results
> 128 | > 128 | > 128 | Cc1cc(OC(=O)c2c(C)cc(O)cc2O)cc(O)c1C(=O)OCC(O)C(O)CO (centres unmarked) [Compound 1, erythrin] | – | 138 (≈ 327 µM) | at least 60% | ne ^1 | at least 40% | ne ^1 | at least 60% | ~40 | IC50 [µg/mL] (CL) BEAS-2B (BEAS-2B bronchial cells; [12]): ne ^2; activity against the planktonic growth of C. albicans ([3]; at the highest concentration (512 μg/mL)): no activity; percent rate of inhibition of biofilm formation (C. albicans biofilm [4]): lower than 40%; infected larvae mortality rate (C. albicans ATCC 10231; 256 μg/mL (10 μL), control group mortality 90%): 20%; toxicity [5]: nontoxic; toxicity [6]: nontoxic; toxicity [7]: nontoxic; toxicity [8]: nontoxic; antifungal activity [9]: not shown any antifungal activity
87 (≈ 478 µM) | > 128 | > 128 | COC(=O)c1c(C)cc(O)cc1O [Compound 2, methyl orsellinate] | 103 (≈ 564 µM) | – | lower than 50% | ne ^1 | at least 40% | ne ^1 | lower than 50% | 60 | IC50 [µg/mL] (CL) H69 (H69 cholangiocytes): ne ^2; GM MIC50 [3, 13]: 87 µg/mL; inhibition at 512 µg/mL (C. albicans biofilm [11]): 72%; larvae survival rate (C. albicans ATCC 10231; 512 μg/mL (10 μL), after 5 days, infected control survival 10%): 50%; inhibition percentage (Alternaria solani): 58.41%; inhibition percentage (Fusarium oxysporum): 67.39%
